# Measured values reported in patent US8153773B2, “Synthesis and use of anti-reverse phosphorothioate analogs of the messenger RNA cap” (Board of Supervisors of Louisiana State University and …, priority 2007, dated 2012).
# Key:
# murine eIF4E (28-217) = biological target: T1, murine eIF4E (28-217) (Mus musculus, UniProt P63073); test: Binding affinities for eIF4E by fluorescence quenching; conditions: murine eIF4E (28-217); for KAS: equilibrium association constant, fluorescence quenching; for ΔG°: binding free energy calculated from KAS
# T1 construct: (28-217) to phosphorothioate cap analogs, as determined
# Description: Binding affinities of S analogs for murine eIF4E were determined by fluorescence quenching. Fluorescence titration measurements were carried out on an LS-50B spectrofluorometer (Perkin Elmer Co.) in 50 mM HEPES/KOH (pH 7.2), 100 mM KCl, 0.5 mM EDTA, 1 mM DTT at 20.0±0.2° C. Aliquots of 1 μl increasing concentration of cap analogue solutions were added to 1.4 ml of […] solutions. Fluorescence intensities (excitation at 280 nm with 2.5 nm bandwidth and detection at 337 nm with 4 nm bandwidth and 290 nm cut-off filter) were corrected taking into account sample dilution and the inner filter effect. Equilibrium association constants (KAS) were determined by fitting the theoretical dependence of the fluorescence intensity on the total concentration of cap analogue to the experimental data points according to equation described previously (See A. Niedzwiecka et al., “Biophysical studies of eIF4E cap-binding protein: recognition of mRNA 5′ cap structure and synthetic fragments of eIF4G and 4E-BP1 proteins,” J. Mol. Biol., vol. 319, pp. 615-635 (2002)). The concentration of protein was fitted as a free parameter of equilibrium equation showing amount of “active” protein. The final KAS was calculated as a weighted average of three to ten independent titrations, with the weights taken as the reciprocals of the numerical standard deviations squared. Numerical nonlinear least-squares regression analysis was performed using ORGIN 6.0 (Microcal Software Inc., USA). The Gibbs free energy of binding was calculated from the KAS value according to the standard equation ΔG°=−RTlnKAS.
# hDcp2 = hDcp2 (Homo sapiens, UniProt Q8IU60); test: In vitro RNA decapping assay with recombinant hDcp2; type: biochemical; conditions: capped 32P-labeled short RNA, recombinant hDcp2, anion exchange HPLC (FIG. 6)
# Description: Dcp2 activity was measured with capped 48-nt oligonucleotides as substrates, a truncated form of luciferase mRNA (48 nucleotides). GST-hDcp2 was expressed in Escherichia coli and purified as described by Z. Wang et al., “The hDcp2 protein is a mammalian mRNA decapping enzyme,” Proc. Natl. Acad. Sci. U.S.A., vol. 99, pp. 12663-12668 (2002). Capped oligonucleotides were first subjected to digestion with GST-hDcp2 at 37° C. for 2 h in decapping buffer (10 mM Tris-HCl, pH 7.5, 100 mM potassium acetate, 2 mM magnesium acetate, 0.5 mM MnCl2, 2 mM dithiothreitol, and 0.1 mM spermine). See C. Piccirillo et al., “Functional characterization of the mammalian mRNA decapping enzyme hDcp2,” RNA, vol. 9, pp. 1138-1147 (2003). The reaction mixture was then extracted once with an equal volume of phenol and twice with chloroform, and RNA was precipitated with ethanol. Products of the decapping reaction were further digested with a cocktail of ribonucleases (RiboShredder; Epicentre) at 37° C. for 1 h. The products were resolved by anion-exchange HPLC on a 4.6×250-mm Partisil 10SAX/25 column (Whatman). The gradient consisted of water for 1 min, a linear gradient to 112 mM KH2PO4, pH 4.5, for 20 min, a linear gradient of 112-450 mM KH2PO4 for 15 min, a linear gradient of 450 mM to 1.5 M KH2PO4 for 15 min, and isocratic elution at 1.5 M of KH2PO4 for 9 min, all at a flow rate 1 ml/min.
# We tested oligonucleotides capped with either of S-ARCAs for hydrolysis by recombinant hDcp2 to test whether mRNA capped with the various diastereomers of m2^7,2′-OGpppsG and m2^7,2′-OGppspG would differ in their sensitivity to cleavage by Dcp1/Dcp2. See generally Z. Wang et al., “The hDcp2 protein is a mammalian mRNA decapping enzyme,” Proc. Natl. Acad. Sci. U.S.A., vol. 99, pp. 12663-12668 (2002), and Z. Wang et al., “An mRNA Stability Complex Functions with Poly(A)-Binding Protein To Stabilize mRNA In Vitro”, Mol. Cell. Biol., vol. 19, pp. 4552-4560 (1999). Cap analogs used were initially unlabeled, so to follow the products of the digestion reaction we synthesized capped oligonucleotides in the presence of [α-^32P]GTP and a DNA template in which G was the first ribonucleotide specified after the promoter. The oligonucleotides capped with either of the S-ARCAs were subjected to Dcp2 digestion in vitro, after which the products were further digested with a cocktail of ribonucleases (RiboShredder from Epicenter). Any nucleotide on the 5′ side of a G residue acquired a ^32P-labeled 3′-phosphate group after ribonuclease digestion by nearest-neighbor transfer. Anion exchange chromatography was then used to resolve the labeled 3′-nucleoside monophosphates (3′-NMP*), at internal positions in the RNA, from labeled 5′-terminal products (FIG. 6). The latter comprise p3 Gp* derived from uncapped transcripts and m2^7,2′-OGp3 Gp* (when m2^7,2′-OGp3G was used), or pGp* resulting from capped RNA resistant or nonresistant to enzymatic cleavage, respectively. All cap analogs used were ARCAs, which ensured that they were incorporated into RNA exclusively in the correct orientation. This further guaranteed that only one 5′-terminal product (m2^7,2′-OGp3 Gp*) was observed upon ribonuclease treatment. Uncapped RNA is not a substrate for Dcp2, which explains why p3 Gp* product was observed after Dcp2 digestion.
# See E. Grudzien et al., “Differential inhibition of mRNA degradation pathways by novel cap analogs,” J. Biol. Chem., vol. 281, pp. 1857-1867 (2006).
# DcpS [1] = biological target: T2, DcpS (Caenorhabditis elegans, UniProt G5EFS4); test: Enzymatic hydrolysis by C. elegans DcpS; type: biochemical; design: key: the analogs assigned as resistant remained completely undigested under the applied conditions; the analogs assigned as hydrolyzed were hydrolyzed by DcpS with efficiency comparable to the respective unmodified parent compound; conditions: conditions giving complete degradation of unmodified parent within 40-90 min, RP HPLC
# T2 sequence (G5EFS4 1-311): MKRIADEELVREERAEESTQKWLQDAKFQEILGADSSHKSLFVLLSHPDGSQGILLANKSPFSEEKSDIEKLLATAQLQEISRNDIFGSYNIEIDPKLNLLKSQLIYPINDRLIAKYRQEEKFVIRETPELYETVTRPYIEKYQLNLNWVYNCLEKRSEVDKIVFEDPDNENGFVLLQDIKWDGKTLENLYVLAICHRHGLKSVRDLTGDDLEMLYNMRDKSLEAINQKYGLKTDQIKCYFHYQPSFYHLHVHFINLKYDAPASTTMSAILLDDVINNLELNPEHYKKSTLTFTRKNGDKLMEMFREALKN
# Description: (§1) Human and nematode DcpS were expressed in Escherichia coli according to the procedures described previously (L. S. Cohen et al., “Nematode m7 GpppG and m3(2,2,7)GpppG decapping: activities in Ascaris embryos and characterization of C. elegans scavenger DcpS,” RNA, vol. 10, pp. 1609-1624 (2004)). Both proteins were stored at −80° C. in 20 mM Tris buffer, pH 7.5, containing 50 mM KCl, 0.2 mM EDTA, 1 mM DTT, 0.5 mM PMSF, and 20% glycerol. An appropriate cap analog at 1 mM concentration was treated with 5.0 or 7.0 μl of DcpS (from human or C. elegans, respectively) in 500 μl of 50 mM TRIS buffer, pH=7.9, containing 20 mM of MgCl2 and 60 mM of (NH4)2SO4 at 37° C. for 60-90 min. Every 15-20 min a 100 μl sample was collected from the reaction mixture and deactivated by incubation in 90° C. for 3 min. Collected samples were analyzed without further treatment by analytical RP HPLC using a linear gradient of methanol in 0.1 M KH2PO4, pH=6.0, from 0-50% within 15 min and UV-detection at 260 nm.
# (§2) The new series of S-analogs were subjected to in vitro enzymatic hydrolysis catalyzed by DcpS from both human and C. elegans sources. In all experiments, the corresponding unmodified cap analog was used as a positive control, i.e., m^7GpppG for non-ARCA S-analogs and m2^7,2′-OGpppG for S-ARCAs. The amount of DcpS enzyme was optimized to provide complete degradation of the control substrate within 40-90 min. The samples collected from reaction mixtures at various time intervals were analyzed by RP HPLC (as described in Materials and Methods).
# (§3) In Table 4, cap analogs at 4 μM concentration were subjected to enzymatic digestion by DcpS in conditions leading to complete degradation of the unmodified parent compound (i.e. m^7GpppG for non-ARCA S-analogs and m2^7,2′-OGpppG for ARCAs) within 40-90 min. Samples collected from reaction mixtures at various time intervals were analysed by RP HPLC with UV detection at 260 nm as described in Materials and Methods. […] The result was unchanged even if the reaction time was extended to 24 h, various amounts of enzyme were used, and composition of the reaction buffer was modified.
# DcpS [2] = biological target: T3, DcpS (Homo sapiens, UniProt Q96C86); test: Enzymatic hydrolysis by human DcpS; type: biochemical; design: key: the analogs assigned as resistant remained completely undigested under the applied conditions; the analogs assigned as hydrolyzed were hydrolyzed by DcpS with efficiency comparable to the respective unmodified parent compound; conditions: conditions giving complete degradation of unmodified parent within 40-90 min, RP HPLC
# T3 sequence (Q96C86 1-337): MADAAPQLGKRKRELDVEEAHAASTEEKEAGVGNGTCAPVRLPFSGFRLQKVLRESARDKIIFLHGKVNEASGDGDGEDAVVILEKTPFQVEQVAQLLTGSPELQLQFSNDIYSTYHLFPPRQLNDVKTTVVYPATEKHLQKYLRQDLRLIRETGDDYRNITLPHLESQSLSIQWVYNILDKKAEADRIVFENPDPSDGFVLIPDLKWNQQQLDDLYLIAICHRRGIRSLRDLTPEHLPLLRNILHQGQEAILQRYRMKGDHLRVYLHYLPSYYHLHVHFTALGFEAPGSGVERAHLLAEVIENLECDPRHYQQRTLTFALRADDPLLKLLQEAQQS
# Description: as §1, §2, §3
# T1 sequence (P63073 28-217): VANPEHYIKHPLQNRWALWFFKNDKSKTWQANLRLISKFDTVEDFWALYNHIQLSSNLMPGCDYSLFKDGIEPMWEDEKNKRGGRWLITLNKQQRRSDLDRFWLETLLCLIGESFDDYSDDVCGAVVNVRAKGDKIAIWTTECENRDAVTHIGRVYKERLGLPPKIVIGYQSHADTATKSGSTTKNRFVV
Compound,KAS (murine eIF4E (28-217)) [µM⁻¹],hydrolysis of capped oligonucleotide by hDcp2 (hDcp2),ΔG° (murine eIF4E (28-217)) [kcal/mol],Resistance to enzymatic hydrolysis by DcpS (from C. elegans) (DcpS [1]),Resistance to enzymatic hydrolysis by DcpS (human) (DcpS [2])
"CO[C@@H]1[C@H](O)[C@@H](COP(=O)(O)OP(=O)([O-])OP(=O)(O)OP(=O)(O)OC[C@H]2O[C@@H](n3cnc4c(=O)[nH]c(N)nc43)[C@H](O)[C@@H]2O)O[C@H]1n1c[n+](C)c2c(O)nc(N)nc21 [m^7,2′-OGppppG, reference compound]",99.8 ± 6.0,–,–,–,–
"m2^7,2′-OGpppsG",–,no increase in stability toward hDcp2,–,–,–
"m2^7,2′-OGpsppG",–,no increase in stability toward hDcp2,–,–,–
m^7GpppsG (D1) [Compound 1a],23.6 ± 0.8,–,-9.88 ± 0.02,hydrolyzed,hydrolyzed
m^7GpppsG (D2) [Compound 1b],13.1 ± 0.8,–,-9.54 ± 0.03,hydrolyzed,hydrolyzed
m^7GppspG (D1) [Compound 2a],45.0 ± 1.1,–,-10.26 ± 0.01,hydrolyzed,hydrolyzed
m^7GppspG (D2) [Compound 2b],23.0 ± 0.4,–,-9.87,hydrolyzed,hydrolyzed
m^7GpsppG (D1) [Compound 3a],–,–,–,resistant,resistant
m^7GpsppG (D2) [Compound 3b],–,–,–,resistant,resistant
